PubChem BioAssay (NCI)
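Test compounds were applied to cells in 96-well plates for 48 hours at 5 doses. TGI marks complete inhibition of growth.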

Assays:
Assay in all cases: inhibition of tumour cell growth, NCI panel, 48 h
HCC-2998 colon = test system: HCC-2998 colon
IGROV1 ovarian = test system: IGROV1 ovarian
MOLT-4 leukemia = test system: MOLT-4 leukemia
CAKI-1 renal = test system: CAKI-1 renal
LOX IMVI melanoma = test system: LOX IMVI melanoma
SR leukemia = test system: SR leukemia
TK-10 renal = test system: TK-10 renal
CCRF-CEM leukemia = test system: CCRF-CEM leukemia
SF-268 CNS = test system: SF-268 CNS
SNB-75 CNS = test system: SNB-75 CNS
NCI/ADR-RES ovarian = test system: NCI/ADR-RES ovarian
HCT-15 colon = test system: HCT-15 colon
A498 renal = test system: A498 renal
SF-295 CNS = test system: SF-295 CNS
OVCAR-5 ovarian = test system: OVCAR-5 ovarian
MDA-MB-231 breast = test system: MDA-MB-231 breast
M14 melanoma = test system: M14 melanoma
NCI-H23 lung = test system: NCI-H23 lung
SNB-19 CNS = test system: SNB-19 CNS
DU-145 prostate = test system: DU-145 prostate
A549 NSCLC = test system: A549 NSCLC
OVCAR-3 ovarian = test system: OVCAR-3 ovarian
K-562 leukemia = test system: K-562 leukemia
SK-MEL-2 melanoma = test system: SK-MEL-2 melanoma
MDA-MB-435 = test system: MDA-MB-435
SN12C renal = test system: SN12C renal
HS 578T breast = test system: HS 578T breast
HCT-116 colon = test system: HCT-116 colon
BT-549 breast = test system: BT-549 breast
NCI-H522 lung = test system: NCI-H522 lung
OVCAR-4 ovarian = test system: OVCAR-4 ovarian
U251 CNS = test system: U251 CNS
T-47D breast = test system: T-47D breast
786-0 renal = test system: 786-0 renal
HT29 colon = test system: HT29 colon
RPMI-8226 leukemia = test system: RPMI-8226 leukemia
HL-60(TB) leukemia = test system: HL-60(TB) leukemia
HOP-62 NSCLC = test system: HOP-62 NSCLC
MDA-N = test system: MDA-N
KM12 colon = test system: KM12 colon
UACC-257 melanoma = test system: UACC-257 melanoma
PC-3 prostate = test system: PC-3 prostate
UACC-62 melanoma = test system: UACC-62 melanoma
HOP-92 NSCLC = test system: HOP-92 NSCLC
SK-OV-3 ovarian = test system: SK-OV-3 ovarian
ACHN renal = test system: ACHN renal
MCF7 breast = test system: MCF7 breast
SW-620 colon = test system: SW-620 colon
EKVX NSCLC = test system: EKVX NSCLC
MALME-3M melanoma = test system: MALME-3M melanoma
COLO 205 colon = test system: COLO 205 colon
SK-MEL-5 melanoma = test system: SK-MEL-5 melanoma
OVCAR-8 ovarian = test system: OVCAR-8 ovarian
NCI-H226 lung = test system: NCI-H226 lung
RXF 393 renal = test system: RXF 393 renal
SF-539 CNS = test system: SF-539 CNS
SK-MEL-28 melanoma = test system: SK-MEL-28 melanoma
UO-31 renal = test system: UO-31 renal
NCI-H460 lung = test system: NCI-H460 lung

Compound `COc1cc(NCCC2CCCCN2)c2ncccc2c1` (stereo not given) has a TGI (HCC-2998 colon) of 30.7 µM, a TGI (IGROV1 ovarian) of over 100 µM and a TGI (MOLT-4 leukemia) of over 68.6 µM. For the same compound, the TGI (CAKI-1 renal) was over 100 µM, the TGI (LOX IMVI melanoma) was over 100 µM and the TGI (SR leukemia) was over 81.3 µM. For the same compound, the TGI (TK-10 renal) was over 100 µM, the TGI (CCRF-CEM leukemia) was over 66.3 µM and the TGI (SF-268 CNS) was over 100 µM. The TGI (SNB-75 CNS) was over 100 µM, the TGI (NCI/ADR-RES ovarian) was over 100 µM and the TGI (HCT-15 colon) was over 100 µM. It also gave a TGI (A498 renal) of over 89.6 µM, a TGI (SF-295 CNS) of over 100 µM and a TGI (OVCAR-5 ovarian) of over 100 µM. It also gave a TGI (MDA-MB-231 breast) of over 92.1 µM, a TGI (M14 melanoma) of 44.9 µM and a TGI (NCI-H23 lung) of over 100 µM. It also gave a TGI (SNB-19 CNS) of over 100 µM, a TGI (DU-145 prostate) of over 100 µM and a TGI (A549 NSCLC) of over 100 µM. It also gave a TGI (OVCAR-3 ovarian) of over 62.7 µM, a TGI (K-562 leukemia) of over 66.3 µM and a TGI (SK-MEL-2 melanoma) of over 91.1 µM. For the same compound, the TGI (MDA-MB-435) was over 67.2 µM, the TGI (SN12C renal) was over 77.2 µM and the TGI (HS 578T breast) was over 100 µM. The TGI (HCT-116 colon) was over 67.6 µM, the TGI (BT-549 breast) was over 100 µM and the TGI (NCI-H522 lung) was over 100 µM. It also gave a TGI (OVCAR-4 ovarian) of over 100 µM, a TGI (U251 CNS) of over 100 µM and a TGI (T-47D breast) of 4.83 µM. It also gave a TGI (786-0 renal) of over 100 µM, a TGI (HT29 colon) of over 100 µM and a TGI (RPMI-8226 leukemia) of over 68.1 µM. It also gave a TGI (HL-60(TB) leukemia) of 19.1 µM, a TGI (HOP-62 NSCLC) of over 100 µM and a TGI (MDA-N) of over 100 µM. It also gave a TGI (KM12 colon) of over 100 µM, a TGI (UACC-257 melanoma) of 41.1 µM and a TGI (PC-3 prostate) of over 100 µM. The TGI (UACC-62 melanoma) was over 59.9 µM, the TGI (HOP-92 NSCLC) was over 100 µM and the TGI (SK-OV-3 ovarian) was over 100 µM. It also gave a TGI (ACHN renal) of over 100 µM, a TGI (MCF7 breast) of 1.96 µM and a TGI (SW-620 colon) of over 100 µM. The TGI (EKVX NSCLC) was over 100 µM, the TGI (MALME-3M melanoma) was over 57.6 µM and the TGI (COLO 205 colon) was 28.6 µM. It also gave a TGI (SK-MEL-5 melanoma) of over 55.4 µM, a TGI (OVCAR-8 ovarian) of over 100 µM and a TGI (NCI-H226 lung) of 97.9 µM. For the same compound, the TGI (RXF 393 renal) was 77 µM, the TGI (SF-539 CNS) was over 100 µM and the TGI (SK-MEL-28 melanoma) was over 59.8 µM. The TGI (UO-31 renal) was over 100 µM and the TGI (NCI-H460 lung) was over 100 µM.
In the case of `O=c1c2cc3c(=O)n4c(cc(-c5ccccc5)c5cc(Cl)ccc54)nc3cc2nc2cc(-c3ccccc3)c3cc(Cl)ccc3n12`, the TGI (HCC-2998 colon) is reported as over 100 µM, the TGI (IGROV1 ovarian) is reported as over 100 µM and the TGI (MOLT-4 leukemia) is reported as over 100 µM. The TGI (CAKI-1 renal) was over 100 µM, the TGI (LOX IMVI melanoma) was over 100 µM and the TGI (SR leukemia) was over 100 µM. The TGI (TK-10 renal) was over 100 µM, the TGI (CCRF-CEM leukemia) was over 100 µM and the TGI (SF-268 CNS) was over 100 µM. The TGI (SNB-75 CNS) was over 100 µM, the TGI (NCI/ADR-RES ovarian) was over 100 µM and the TGI (HCT-15 colon) was over 100 µM. For the same compound, the TGI (A498 renal) was over 100 µM, the TGI (SF-295 CNS) was over 100 µM and the TGI (OVCAR-5 ovarian) was over 100 µM. It also gave a TGI (MDA-MB-231 breast) of over 100 µM, a TGI (M14 melanoma) of over 100 µM and a TGI (NCI-H23 lung) of over 100 µM. The TGI (SNB-19 CNS) was over 100 µM, the TGI (DU-145 prostate) was over 100 µM and the TGI (A549 NSCLC) was over 100 µM. It also gave a TGI (OVCAR-3 ovarian) of over 100 µM, a TGI (K-562 leukemia) of over 100 µM and a TGI (SK-MEL-2 melanoma) of over 100 µM. It also gave a TGI (MDA-MB-435) of over 100 µM, a TGI (SN12C renal) of over 100 µM and a TGI (HS 578T breast) of over 100 µM. It also gave a TGI (HCT-116 colon) of over 100 µM, a TGI (BT-549 breast) of over 100 µM and a TGI (NCI-H522 lung) of over 100 µM. The TGI (U251 CNS) was over 100 µM, the TGI (T-47D breast) was over 100 µM and the TGI (786-0 renal) was over 100 µM. It also gave a TGI (HT29 colon) of over 100 µM, a TGI (RPMI-8226 leukemia) of over 100 µM and a TGI (HOP-62 NSCLC) of over 100 µM. For the same compound, the TGI (MDA-N) was over 100 µM, the TGI (KM12 colon) was over 100 µM and the TGI (UACC-257 melanoma) was over 100 µM. For the same compound, the TGI (PC-3 prostate) was over 100 µM, the TGI (UACC-62 melanoma) was over 100 µM and the TGI (HOP-92 NSCLC) was over 100 µM. It also gave a TGI (SK-OV-3 ovarian) of over 100 µM, a TGI (ACHN renal) of over 100 µM and a TGI (MCF7 breast) of over 100 µM. The TGI (SW-620 colon) was over 100 µM, the TGI (EKVX NSCLC) was over 100 µM and the TGI (COLO 205 colon) was over 100 µM. For the same compound, the TGI (SK-MEL-5 melanoma) was over 100 µM, the TGI (OVCAR-8 ovarian) was over 100 µM and the TGI (NCI-H226 lung) was over 100 µM. For the same compound, the TGI (RXF 393 renal) was over 100 µM, the TGI (SF-539 CNS) was over 100 µM and the TGI (SK-MEL-28 melanoma) was over 100 µM. For the same compound, the TGI (UO-31 renal) was over 100 µM and the TGI (NCI-H460 lung) was over 100 µM.
